According to the supplement of paper PMC6045584:
± gives the standard deviation of the averaged measurements.

Legend:
CRIZOTINIB = compound: C[C@@H](Oc1cc(-c2cnn(C3CCNCC3)c2)cnc1N)c1c(Cl)ccc(F)c1Cl [CRIZOTINIB]; assay: surviving fraction relative to DMSO-only wells; higher = less growth inhibition; settings: exposure time: 5 days
How it was run: (§1)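 In 384-well plates, 250–500 log-phase tumour cells per well were given 24 hours before five days of continuous exposure to inhibitors at 0.5, 1, 5, 10, 50, 100, 500 and 1000 nM. Surviving fraction is luminescence from CellTiter-Glo, normalised to the median of wells containing DMSO alone. Reading took place after 10 minutes at room temperature.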

TEMOZOLOMIDE = compound: Cn1nnc2c(C(N)=O)ncn2c1=O [TEMOZOLOMIDE]; assay: as above; settings: exposure time: 5 days
How it was run: as §1

Row | Test System | surviving fraction (CRIZOTINIB; 0.5 nM) | surviving fraction (CRIZOTINIB; 1 nM) | surviving fraction (CRIZOTINIB; 10 nM) | surviving fraction (CRIZOTINIB; 50 nM) | surviving fraction (CRIZOTINIB; 100 nM) | surviving fraction (CRIZOTINIB; 500 nM) | surviving fraction (TEMOZOLOMIDE; 0.5 nM) | surviving fraction (TEMOZOLOMIDE; 1 nM) | surviving fraction (TEMOZOLOMIDE; 5 nM) | surviving fraction (TEMOZOLOMIDE; 10 nM) | surviving fraction (TEMOZOLOMIDE; 50 nM) | surviving fraction (TEMOZOLOMIDE; 100 nM) | surviving fraction (TEMOZOLOMIDE; 500 nM) | surviving fraction (TEMOZOLOMIDE; 1000 nM) | surviving fraction (CRIZOTINIB; 5 nM) | surviving fraction (CRIZOTINIB; 1000 nM)
1 | SG28 HEADNECK | 1.06 ± 0.052 | 1.18 ± 0.1 | 1.22 ± 0.055 | 1.08 ± 0.025 | 1.15 ± 0.12 | 1.044 ± 0.0092 | 1.03 ± 0.044 | 1.18 ± 0.034 | 1.04 ± 0.013 | 1.1 ± 0.021 | 1.1 ± 0.087 | 1.05 ± 0.013 | 1.09 ± 0.14 | 1.09 ± 0.048 |  | 
2 | SCC003 HEADNECK | 1.07 ± 0.043 |  | 1.06 ± 0.064 | 1.06 ± 0.045 | 1.09 ± 0.058 | 0.929 ± 0.1 | 1.05 ± 0.077 | 1.04 ± 0.059 | 1.08 ± 0.072 | 1.15 ± 0.073 | 1.06 ± 0.034 | 1.1 ± 0.071 | 1.07 ± 0.057 | 1.09 ± 0.036 | 1.08 ± 0.13 | 0.793 ± 0.044
3 | SIHA CERVIX | 1.08 ± 0.044 | 1.06 ± 0.079 | 1.14 ± 0.061 | 1.06 ± 0.046 | 1.09 ± 0.059 | 0.9 ± 0.028 | 0.992 ± 0.024 | 0.996 ± 0.072 | 0.99 ± 0.06 | 1.06 ± 0.076 | 1.02 ± 0.021 | 1.06 ± 0.039 | 0.968 ± 0.044 | 1.02 ± 0.028 | 1.12 ± 0.053 | 0.662 ± 0.014
4 | SYO1 SYNOVIAL | 0.967 ± 0.015 | 1.03 ± 0.029 | 1 ± 0.028 | 0.978 ± 0.042 | 0.891 ± 0.018 | 0.399 ± 0.03 | 0.971 ± 0.041 | 1.04 ± 0.064 | 0.965 ± 0.0099 | 1.01 ± 0.048 | 0.986 ± 0.059 | 1.01 ± 0.048 | 0.99733 ± 0.00067 | 1.03 ± 0.016 | 0.953 ± 0.094 | 0.169 ± 0.008
5 | RDES SOFT TISSUE |  | 1.24 ± 0.083 | 1.15 ± 0.11 |  | 1.16 ± 0.1 | 1.44 ± 0.12 | 1.11 ± 0.033 | 1.2 ± 0.06 | 1.14 ± 0.088 | 1.02 ± 0.12 | 1.15 ± 0.13 | 1.3 ± 0.14 | 1.27 ± 0.15 | 1.34 ± 0.17 |  | 0.194 ± 0.047
6 | SG43 HEADNECK | 1.28 ± 0.25 | 1.06 ± 0.15 | 0.947 ± 0.31 | 0.87 ± 0.073 | 0.756 ± 0.094 | 0.586 ± 0.027 | 1.11 ± 0.065 | 0.96 ± 0.1 | 0.768 ± 0.047 | 0.882 ± 0.087 | 0.742 ± 0.18 | 0.895 ± 0.24 | 0.895 ± 0.11 | 1.14 ± 0.46 | 1.02 ± 0.062 | 0.271 ± 0.03
7 | MCF7 BREAST | 0.963 ± 0.04 |  | 0.968 ± 0.042 | 1 ± 0.025 | 0.981 ± 0.021 | 1 ± 0.05 | 0.889 ± 0.03 | 0.932 ± 0.023 | 0.934 ± 0.027 | 0.907 ± 0.054 | 0.922 ± 0.031 | 0.941 ± 0.037 | 0.958 ± 0.058 | 0.987 ± 0.034 | 0.967 ± 0.011 | 0.617 ± 0.035
8 | HELA CERVIX | 1.09 ± 0.057 | 1.07 ± 0.062 | 1.09 ± 0.03 | 1.09 ± 0.12 | 1.07 ± 0.08 | 1.09 ± 0.072 | 1.04 ± 0.058 | 1.08 ± 0.09 | 1.04 ± 0.019 | 1.12 ± 0.078 | 1.07 ± 0.02 | 1.16 ± 0.084 | 1.07 ± 0.031 | 1.16 ± 0.072 | 1.08 ± 0.055 | 0.581 ± 0.028
9 | VP229 BREAST |  | 1.23 ± 0.082 | 1.23 ± 0.059 | 1.14 ± 0.048 | 1.15 ± 0.14 | 1.03 ± 0.15 | 1.18 ± 0.11 | 1.18 ± 0.15 | 1.07 ± 0.17 | 1.23 ± 0.06 | 1.12 ± 0.073 | 1.26 ± 0.21 | 1.15 ± 0.15 | 1.15 ± 0.16 | 1.06 ± 0.018 | 0.686 ± 0.14
10 | 143B BONE |  |  |  | 1.09 ± 0.015 |  |  | 0.914 ± 0.096 | 1.0035 ± 0.00071 | 0.961 ± 0.047 | 1 ± 0.033 | 1.01 ± 0.013 | 1.02 ± 0.023 | 0.965 ± 0.03 | 1.04 ± 0.019 | 1.08 ± 0.012 | 0.865 ± 0.011
11 | 22RV1 PROSTATE | 0.993 ± 0.1 | 1.11 ± 0.083 |  | 1.11 ± 0.091 | 0.976 ± 0.16 |  | 0.993 ± 0.017 | 1.09 ± 0.05 | 1.03 ± 0.029 | 1.08 ± 0.015 | 1.04 ± 0.057 | 1.13 ± 0.096 | 1.11 ± 0.048 | 1.09 ± 0.069 |  | 0.459 ± 0.024
12 | SAOS2 BONE | 1.14 ± 0.063 | 1.12 ± 0.023 | 1.23 ± 0.068 | 1.34 ± 0.14 | 1.19 ± 0.1 | 0.541 ± 0.046 | 1.1 ± 0.026 | 1.12 ± 0.099 | 1.25 ± 0.047 | 1.2 ± 0.05 | 1.2 ± 0.13 | 1.23 ± 0.081 | 1.16 ± 0.063 | 1.18 ± 0.14 | 1.2 ± 0.044 | 0.1927 ± 0.00058
13 | CAL51 BREAST | 0.981 ± 0.081 | 1.03 ± 0.034 | 1.07 ± 0.052 | 1.01 ± 0.05 | 1.05 ± 0.046 | 0.232 ± 0.024 | 0.973 ± 0.038 | 1.05 ± 0.037 | 0.993 ± 0.02 | 1.07 ± 0.048 | 1.05 ± 0.057 | 1.06 ± 0.048 | 1.04 ± 0.032 | 1.02 ± 0.037 | 1.03 ± 0.012 | 0.213 ± 0.012
14 | C33A CERVIX | 0.954 ± 0.064 | 0.983 ± 0.088 | 1.04 ± 0.13 |  |  | 0.925 ± 0.076 | 0.944 ± 0.13 | 0.901 ± 0.11 | 1.02 ± 0.056 | 0.929 ± 0.088 | 0.944 ± 0.047 | 1.05 ± 0.061 | 0.924 ± 0.012 | 0.984 ± 0.068 |  | 0.828 ± 0.092
15 | HSSYII SYNOVIAL | 1.04 ± 0.045 | 1.03 ± 0.037 | 1 ± 0.083 | 0.934 ± 0.034 |  | 0.392 ± 0.037 | 0.958 ± 0.033 | 0.957 ± 0.061 | 0.965 ± 0.039 | 0.998 ± 0.051 | 1.02 ± 0.024 | 0.9798 ± 0.0033 | 0.981 ± 0.035 | 0.956 ± 0.04 | 1.03 ± 0.05 | 0.189 ± 0.0013
16 | HUO3N1 BONE | 1.03 ± 0.016 | 1.02 ± 0.049 | 1.07 ± 0.083 |  |  |  | 0.981 ± 0.025 | 0.988 ± 0.045 | 1.029 ± 0.0051 | 1.04 ± 0.042 | 1.01 ± 0.039 | 1.06 ± 0.032 | 0.9827 ± 0.0083 | 1.02 ± 0.03 | 1.117 ± 0.0087 | 0.787 ± 0.061
17 | ZR751 BREAST |  | 1.07 ± 0.14 |  | 1.07 ± 0.1 |  | 0.818 ± 0.095 | 0.95 ± 0.12 | 0.953 ± 0.032 | 0.981 ± 0.034 | 0.964 ± 0.09 | 0.987 ± 0.15 | 1.04 ± 0.11 | 0.918 ± 0.11 | 1.05 ± 0.06 | 0.926 ± 0.024 | 0.747 ± 0.07
18 | BT549 BREAST |  | 1.07 ± 0.056 | 1.06 ± 0.041 | 1.05 ± 0.062 | 1.09 ± 0.097 |  | 1.1 ± 0.12 | 1.08 ± 0.085 | 1.05 ± 0.1 | 1.12 ± 0.13 | 1.09 ± 0.043 | 1.26 ± 0.1 | 1.09 ± 0.07 | 1.19 ± 0.14 |  | 0.375 ± 0.016
19 | JIMT1 BREAST | 1.01 ± 0.029 | 1.01 ± 0.029 | 1 ± 0.032 | 1.07 ± 0.045 | 1.08 ± 0.036 | 0.833 ± 0.044 | 1 ± 0.022 | 1.03 ± 0.032 | 1.021 ± 0.0081 | 1.07 ± 0.07 | 1 ± 0.022 | 1.04 ± 0.038 | 1.01 ± 0.025 | 1.06 ± 0.065 | 1.03 ± 0.012 | 0.538 ± 0.022
20 | PCI30 HEADNECK | 1.07 ± 0.075 | 1.12 ± 0.058 | 1.1 ± 0.072 | 1.03 ± 0.024 |  | 0.759 ± 0.055 | 0.957 ± 0.026 | 0.976 ± 0.067 | 0.988 ± 0.023 | 1.04 ± 0.043 | 1.07 ± 0.047 | 1.05 ± 0.041 | 0.937 ± 0.013 | 0.939 ± 0.03 | 1.02 ± 0.028 | 0.6787 ± 0.0025
21 | SJSA1 BONE | 1.72 ± 0.049 | 1.69 ± 0.11 | 1.719 ± 0.008 | 0.796 ± 0.079 | 1.57 ± 0.021 | 1.62 ± 0.037 | 0.368 ± 0.017 | 1.72 ± 0.054 | 1.64 ± 0.088 | 1.5 ± 0.13 | 1.69 ± 0.041 | 1.64 ± 0.077 | 1.66 ± 0.084 | 1.7 ± 0.11 | 1.65 ± 0.11 | 1.06 ± 0.11
22 | MDAMB157 BREAST | 1.03 ± 0.087 | 0.999 ± 0.027 | 0.977 ± 0.044 | 1.06 ± 0.11 | 1.04 ± 0.082 | 0.754 ± 0.021 | 1.02 ± 0.067 | 0.986 ± 0.046 | 0.968 ± 0.09 | 1.1 ± 0.074 | 0.953 ± 0.06 | 1.11 ± 0.028 | 0.927 ± 0.055 | 0.954 ± 0.1 | 1.06 ± 0.076 | 0.601 ± 0.029
23 | BT20 BREAST | 1.24 ± 0.013 | 1.23 ± 0.091 | 1.25 ± 0.05 | 1.05 ± 0.067 | 1.08 ± 0.031 | 1.13 ± 0.088 | 1.05 ± 0.097 | 1.07 ± 0.15 | 1.04 ± 0.085 | 1.13 ± 0.11 | 1.01 ± 0.053 | 1.08 ± 0.081 | 1.03 ± 0.053 | 1.15 ± 0.052 | 1.13 ± 0.059 | 0.592 ± 0.095
